The values that follow come from paper PMC4172917, “Synergy of crude enzyme cocktail from cold-adapted Cladosporium cladosporioides Ch2-2 with commercial xylanase achieving high sugars yield at low cost” (Biotechnology for Biofuels, 2014).

For experiment [1], the system named is laccase. The settings on record: optimal conditions (15°C, pH 3.5), but b56 states 28°C and 10 to 40 mmol/L substrate; sodium acetate buffer.
The test system of experiment [2] is T1, MIP (manganese-independent peroxidase).
T1 construct: native enzyme purified from culture supernatant (ammonium sulfate, DEAE-Sephadex A 50, CM-Sephadex C 50, Sephadex G-75); about 47 kDa by SDS-PAGE
As to the kind of experiment: initial rates, oxidation of DMP at […] nm. The settings on record: without H2O2 and Mn2+; optimal conditions (20°C, pH 2.5), but b56 states 28°C and 10 to 40 mmol/L substrate; malonate buffer; compound identity doubtful: DMP is spelt out as dimethyl phthalate. The experiment is classed as biochemical, Cladosporium cladosporioides.

The Km is the substrate concentration at which the rate is half of its maximum. `CCn1c(=NN=c2sc3cc(S(=O)(=O)O)ccc3n2CC)sc2cc(S(=O)(=O)O)ccc21` [ABTS]: in experiment [1], the Km came to 2.8 µM.
On to `COc1cccc(OC)c1O` [DMP], for which the Km in experiment [2] came to 6.9 µM.
